Experimental data taken from PubChem BioAssay AID1963448 (Molecular Pharmacology Branch, DTP, NCI, 2024).
Several values for one entry are separate records, joined by “and”; a condition that tells them apart may be missing. Equal entries are not always repeated.

System: 616215-338-R-J1-PDC complex spheroid growth, % test/control
Test: Anticancer human tumor 616215-338-R-J1-PDC patient-derived colon adenocarcinoma cell line growth inhibition [Asc]
Conditions: for viability, T/C: stronger effect = lower value; active = viability on the fitted dose curve at most 10% of control; inactive = the rest
Method in brief: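 Tumor cells were grown as complex spheroids with human endothelial cells (HUVEC) and human mesenchymal stem cells as stroma. Agents were tested alone and in combination, in half-log steps down from the clinical Cmax, or from 10 microM where Cmax was unknown.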

[1] = curve of first compound, second compound 0.03 µM
[2] = curve of first compound, second compound 0.0949 µM
[3] = curve of first compound, second compound 0.3 µM
[4] = curve of first compound, second compound 0.949 µM
[5] = curve of first compound, second compound 3 µM
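Note: spheroids exposed to agents for seven days before readout.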
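Throughout, for viability, T/C: 100% = DMSO vehicle control viability.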

C#Cc1c(F)ccc2cc(O)cc(-c3ncc4c(N5CC6CCC(C5)N6)nc(OCC56CCCN5CC(F)C6)nc4c3F)c12 (configuration not stated) + CCN1C(C(=O)NC23CCC(C(=O)O)(CC2)CC3)C(c2cccc(Cl)c2F)C2(C(=O)Nc3cc(Cl)ccc32)C12CCCCC2
< 31.6 nM: IC50 [5]
inactive: viability, T/C (second compound 0.03 µM, first compound 0.0316 µM) 91.1% | viability, T/C (second compound 0.03 µM, first compound 0.1 µM) 98.6% | viability, T/C (second compound 0.03 µM, first compound 0.316 µM) 93.5% | viability, T/C (second compound 0.03 µM, first compound 1 µM) 94.3% | viability, T/C (second compound 0.03 µM, first compound 3.16 µM) 84.4% | viability, T/C (second compound 0.03 µM, first compound 10 µM) 67.5% | viability, T/C (second compound 0.0949 µM, first compound 0.0316 µM) 84.9% | viability, T/C (second compound 0.0949 µM, first compound 0.1 µM) 85.3% | viability, T/C (second compound 0.0949 µM, first compound 0.316 µM) 91.4% | viability, T/C (second compound 0.0949 µM, first compound 1 µM) 82.5% | viability, T/C (second compound 0.0949 µM, first compound 3.16 µM) 80.3% | viability, T/C (second compound 0.0949 µM, first compound 10 µM) 68.1% | viability, T/C (second compound 0.3 µM, first compound 0.0316 µM) 56.4% | viability, T/C (second compound 0.3 µM, first compound 0.1 µM) 57.1% | viability, T/C (second compound 0.3 µM, first compound 0.316 µM) 61.6% | viability, T/C (second compound 0.3 µM, first compound 1 µM) 54% | viability, T/C (second compound 0.3 µM, first compound 3.16 µM) 44.7% | viability, T/C (second compound 0.3 µM, first compound 10 µM) 38.4% | viability, T/C (second compound 0.949 µM, first compound 0.0316 µM) 63.6% | viability, T/C (second compound 0.949 µM, first compound 0.1 µM) 66% | viability, T/C (second compound 0.949 µM, first compound 0.316 µM) 60.5% | viability, T/C (second compound 0.949 µM, first compound 1 µM) 51% | viability, T/C (second compound 0.949 µM, first compound 3.16 µM) 46.5% | viability, T/C (second compound 0.949 µM, first compound 10 µM) 30% | viability, T/C (second compound 3 µM, first compound 0.0316 µM) 36.6% | viability, T/C (second compound 3 µM, first compound 0.1 µM) 42.4% | viability, T/C (second compound 3 µM, first compound 0.316 µM) 36.1% | viability, T/C (second compound 3 µM, first compound 1 µM) 32.4% | viability, T/C (second compound 3 µM, first compound 3.16 µM) 20.1% | viability, T/C (second compound 3 µM, first compound 10 µM) 17.4%
> 10000 nM: IC50 [1] | IC50 [2]
1710 nM: IC50 [3]
1630 nM: IC50 [4]

COc1c(OCCCN2CCOCC2)ccc2c3n(c(=NC(=O)c4cnc(N)nc4)nc12)CCN3
inactive: viability, T/C (compound 0.00316 µM) 102% (2×) and 105% | viability, T/C (compound 0.01 µM) 107% and 102% and 98.3% | viability, T/C (compound 0.0316 µM) 111% and 100% and 68% | viability, T/C (compound 0.1 µM) 95.3% and 105% and 36.9% | viability, T/C (compound 0.316 µM) 48.7% and 43.9% and 18.3% | viability, T/C (compound 1 µM) 28.9% and 26% and 11.2%
305 nM and 281 nM and 62.4 nM: IC50 (curve of compound)

NC(=O)C(=Cn1cnc(-c2cc(C(F)(F)F)cc(C(F)(F)F)c2)n1)c1cncnc1 + CCN1C(C(=O)NC23CCC(C(=O)O)(CC2)CC3)C(c2cccc(Cl)c2F)C2(C(=O)Nc3cc(Cl)ccc32)C12CCCCC2
inactive: viability, T/C (second compound 0.03 µM, first compound 0.000949 µM) 89.7% | viability, T/C (second compound 0.03 µM, first compound 0.003 µM) 93.4% | viability, T/C (second compound 0.03 µM, first compound 0.00949 µM) 88.1% | viability, T/C (second compound 0.03 µM, first compound 0.03 µM) 83.7% | viability, T/C (second compound 0.03 µM, first compound 0.0949 µM) 73.8% | viability, T/C (second compound 0.03 µM, first compound 0.3 µM) 56.2% | viability, T/C (second compound 0.0949 µM, first compound 0.000949 µM) 84.4% | viability, T/C (second compound 0.0949 µM, first compound 0.003 µM) 85.4% | viability, T/C (second compound 0.0949 µM, first compound 0.00949 µM) 75.5% | viability, T/C (second compound 0.0949 µM, first compound 0.03 µM) 61.3% | viability, T/C (second compound 0.0949 µM, first compound 0.0949 µM) 48.8% | viability, T/C (second compound 0.0949 µM, first compound 0.3 µM) 28.9% | viability, T/C (second compound 0.3 µM, first compound 0.000949 µM) 60% | viability, T/C (second compound 0.3 µM, first compound 0.003 µM) 57.2% | viability, T/C (second compound 0.3 µM, first compound 0.00949 µM) 48.2% | viability, T/C (second compound 0.3 µM, first compound 0.03 µM) 32.6% | viability, T/C (second compound 0.3 µM, first compound 0.0949 µM) 24.9% | viability, T/C (second compound 0.949 µM, first compound 0.000949 µM) 49.2% | viability, T/C (second compound 0.949 µM, first compound 0.003 µM) 48.9% | viability, T/C (second compound 0.949 µM, first compound 0.00949 µM) 35.5% | viability, T/C (second compound 0.949 µM, first compound 0.03 µM) 11.2% | viability, T/C (second compound 3 µM, first compound 0.000949 µM) 39.3% | viability, T/C (second compound 3 µM, first compound 0.003 µM) 32.4% | viability, T/C (second compound 3 µM, first compound 0.00949 µM) 17.5%
> 300 nM: IC50 [1]
77.4 nM: IC50 [2]
active: viability, T/C (second compound 0.3 µM, first compound 0.3 µM) 6.51% | viability, T/C (second compound 0.949 µM, first compound 0.0949 µM) 3.85% | viability, T/C (second compound 0.949 µM, first compound 0.3 µM) 0.63% | viability, T/C (second compound 3 µM, first compound 0.03 µM) 3.73% | viability, T/C (second compound 3 µM, first compound 0.0949 µM) 1.87% | viability, T/C (second compound 3 µM, first compound 0.3 µM) 0.41%
6.42 nM: IC50 [3]
< 0.949 nM: IC50 [4] | IC50 [5]
